From ChEMBL document CHEMBL1158718, “4-Hydroxybenzoyl derivative from the aqueous extract of the hydroid Campanularia sp” (J Nat Prod, 2005)
Active and inactive are the calls of the source. No cut-off for these calls is given here.

How the values were obtained:
ARP1 [1] = assay: Growth inhibition of human ARP1 cells up to 100 uM; assay type: functional, cell-based
[2] = biological target: Histone deacetylase (Homo sapiens) (UniProt Q13547+O15379+Q9UBN7+Q92769+Q9UQL6+Q8WUI4+Q9BY41+Q96DB2+P56524+Q9UKV0+Q969S8); assay: Inhibition of HDAC in human ARP1 cells; assay type: cell-based
ARP1 [3] = assay: Induction of P21WAF1 gene expression in human ARP1 cells; assay type: functional, cell-based

Activity [2]	Compound	Activity (ARP1 [1])	Activity (ARP1 [3])
inactive	N=C(N)NCCCCNC(=O)C(=O)c1ccc(O)cc1	inactive	–
–	O=C(CCCCCCC(=O)Nc1ccccc1)NO	–	Active
